Patent publication EP0262209B1, “SYNERGISTIC PLANT GROWTH REGULATOR COMPOSITIONS” (RHONE POULENC NEDERLAND B.V., priority 1986, dated 1987)
Like-named read-outs stand apart in the source and are kept apart here.

How the values were obtained:
[1] = test system: cotton plant; assay: Regrowth of cotton following defoliation, DEF treated plant as standard (Example XIV, Table K); type: in vivo
Protocol: (§1) Solutions of the test compounds and compositions identified in Table F were prepared by dissolving the compounds in acetone/water (50:50 volume/volume) containing 0.1 percent volume/volume of Surfel® spray adjuvant commercially available from Union Carbide Corporation, Danbury, Connecticut. As detailed below, these solutions of test compounds and compositions were applied to cotton plants at a concentration of 0.5 pounds of each active ingredient per acre (0,6 kg/ha) or 2.0 pounds of active ingredient per acre (2,2 kg/ha). The compositions were applied to cotton as mixtures.
(§2) The above solutions were applied to cotton plants growing under field conditions at a spray volume equivalent to 100 gallons per acre 935 l/ha) by use of a carbon dioxide backpack sprayer set at about 30 psig air pressure (2 bar). The application timing coincided with a cotton maturity phase equivalent to about 40 percent open bolls. As a control, a water-acetone solution containing no test compound or composition was also sprayed on the cotton plants. At four days after treatment, percent defoliation of the cotton plants was determined by visual observation. At 14 days after treatment, percent boll opening was determined by visual observation of the number of open bolls/total number of bolls. The percent defoliation and percent boll opening values obtained for the control and each of the test compounds and compositions are reported in Table F as the average of three replications. TABLE F
In a manner similar to the procedure described in Example IX , the effect of cotton regrowth after defoliation was determined for representative synergistic compositions at various rates of application. The percent regrowth inhibition and stimulation in Table R below were determined by visual observation based on the percent of a cotton plant having regrowth using a DEF treated cotton plant as the standard. DEF is commercially available from Mobay Chemical Corporation, Kansas City, Missouri. The average regrowth of a cotton plant treated with DEF was 43 percent. As used in Table R, percent regrowth inhibition resulted from a cotton plant having a regrowth percentage less than 43 percent (DEF standard), and percent regrowth stimulation resulted from a cotton plant having a regrowth percentage greater than 43 percent. The percent regrowth inhibition and stimulation were determined 30 days after treatment.

[2] = test system: snapbean plants; assay: Defoliation of snapbean plants at various rates, 72 hours (Example VII, Table D); type: in vivo, Phaseolus vulgaris var. Cranberry; settings: 72 hours after treatment
Protocol: (§3) Solutions of the test compounds and compositions identified in Table C below were prepared by dissolving the compounds in acetone/water (50:50 volume/volume) containing 0.1 percent volume/volume of Triton X-100 surfactant commercially available from Rhom and Haas Company, Philadelphia, Pennsylvania. As detailed below, these solutions of the test compounds and compositions were applied to snapbean plants at a concentration of 0.25 pounds of each active ingredient per acre (0.28 kg/ha) or 0.50 pounds of each active ingredient per acre (0.56 kg/ha). The compositions were applied to the snapbean plants as a mixture. Ethephon is commercially available from Union Carbide Agricultural Products Company, Inc., Research Triangle Park, North Carolina.
(§4) Into 13.5 centimeter diameter plastic pots containing a potting soil mix, i.e., one-third sandy loam soil, one-third peat moss and one-third perlite by volume, were sown three snapbean seeds (Phaseolus vulgaris var. Cranberry). Five to seven days after planting, the plants were thinned to one plant per pot. Ten to fourteen days after planting at the time of full expansion of the primary leaves, each concentration of the test compounds and compositions identified in […] (each pot sprayed with a volume equivalent to 180 gallons per acre) - i.e. 1683 l/ha was applied to three snapbean plants as a foliar spray by use of an aspirated spray apparatus set at 10 psig air pressure (517 mmHg). As a control, a water-acetone solution containing no test compound or composition was also sprayed on three snapbean plants. When dry, all or the plants were placed in a greenhouse at a temperature of 80°F ± 5°F (27°C ± 3°C) and humidity of 50 percent ± 5 percent. At 96 hours after treatment, percent defoliation of the snapbean plants was determined by visual observation. The values obtained For the control and each test compound and composition were averaged to obtain the results in Table C.
In a manner similar to the procedure described in Example VI, the defoliation effect on snapbean plants was determined for representative synergistic compositions at various rates of application except that percent defoliation of the snapbean plants was determined at 72 hours after treatment. TABLE D

[3] = test system: snapbean plants; assay: Defoliation of snapbean plants, foliar spray (Example VI, Table C); type: in vivo, Phaseolus vulgaris var. Cranberry; settings: Phaseolus vulgaris, read-out: Percent Defoliation
Protocol: as §3, §4

[4] = test system: mature tobacco plants; assay: Leaf ripening (chlorosis) of tobacco (Example XV, Table L); type: in vivo; settings: Rate 1.0 Pounds per Acre, alone; upper three leaves; 7 days after treatment; control 10
Protocol: as §3, with “Ethephon is commercially available from Union Carbide Agricultural Products Company, Inc., Research Triangle Park, North Carolina.” left out
Into 13.5 centimeter diameter plastic pots containing a potting soil mix, i.e., one-third sandy loam soil, one-third peat moss and one-third perlite by volume, were sown three snapbean seeds (Phaseolus vulgaris var. Cranberry). […] At 96 hours after treatment, percent defoliation of the snapbean plants was determined by visual observation. […]
In a manner similar to the procedure described in Example VI except that mature tobacco plants were used in place of snapbean plants, the leaf ripening effect of tobacco was determined for representative synergistic compositions at various rates of application. […] Percent tobacco leaf ripening (chlorosis) was determined by visual observation of the upper three leaves of the tobacco plant at 7 days after treatment. […]

[5] = test system: cotton; assay: Defoliation of cotton at various rates (Example XIII, Table J); type: in vivo; settings: Rate 0.5 Pounds per Acre, alone
Protocol: as §1, §2
In a manner similar to the procedure described in Example IX , the defoliation effect on cotton was determined for representative synergistic compositions at various rates of application. TABLE J

[6] = test system: cotton plants; assay: Defoliation and boll opening of cotton under field conditions (Example IX, Table F); type: in vivo; set-up: key to Percent Boil Opening: *: Percent boll opening essentially the same as the control as determined by visual observation; settings: Rate 2.0 Pounds per Acre; for Percent Boil Opening: 14 days after treatment, control 41; for Percent Defoliation: field conditions, four days after treatment
Protocol: as §1, §2

[7] = test system: snapbean plants; assay: Combination/sequential applications, defoliation of snapbean plants (Example VIII, Table E); type: in vivo, Phaseolus vulgaris var. Cranberry; settings: Rate 0.5 Pounds per Acre, applied alone
Protocol: as §3
Into 13.5 centimeter diameter plastic pots containing a potting soil mix, i.e., one-third sandy loam soil, one-third peat moss and one-third perlite by volume, were sown three snapbean seeds (Phaseolus vulgaris var. Cranberry). Five to seven days after planting, the plants were thinned to one plant per pot. […] At 96 hours after treatment, percent defoliation of the snapbean plants was determined by visual observation. […]
In a manner similar to the procedure described in Example VI , the defoliation effect on snapbean plants was determined for representative synergistic compositions using both combination (tank mix) and sequential application methods. […]

[8] = test system: rank growth cotton; assay: Defoliation of cotton (rank growth) (Example X, Table G); type: in vivo; settings: Rate 2.0 Pounds per Acre
Protocol: as §1, §2
In a manner similar to the procedure described in Example IX , the defoliation effect on rank growth cotton was determined for representative synergistic compositions at various rates of application. […] TABLE G

[9] = test system: cotton; assay: Sequential applications, defoliation of cotton (Example XI, Table H); type: in vivo; settings: alone
Protocol: In a manner similar to the procedure described in Example VI , the defoliation effect on snapbean plants was determined for representative synergistic compositions using both combination (tank mix) and sequential application methods. In the sequential application method, the second compound was applied 78 hours after the first compound. TABLE E
In a manner similar to the procedure described in Example VIII , the defoliation effect on cotton was determined for representative synergistic compositions using sequential application. Ethephon applications were made 7 days after application of the particular malonic acid derivative compound. TABLE H

[10] = test system: snapbean plants; assay: Defoliation of snapbean plants with various ethylene releasing agents (Example XVI, Table M); type: in vivo, Phaseolus vulgaris var. Cranberry
Protocol: as §3, §4
In a manner similar to the procedure described in Example VI , the defoliation effect on snapbean plants was determined for representative synergistic compositions at various rates of application using various ethylene releasing agents identified in Table M below. The ethylene releasing agents used in […] are known materials which can be prepared by conventional methods.

[11] = test system: cotton; assay: Defoliation of cotton at various rates (Example XII, Table I); type: in vivo; settings: Rate 0.5 Pounds per Acre, alone
Protocol: as §1, §2
In a manner similar to the procedure described in Example IX , the defoliation effect on cotton was determined for representative synergistic compositions at various rates of application.

[12] = Gossypium hirsutum, 720 h, read-out: Percent Inhibition
[13] = regrowth relative to DEF standard (43 percent), Rate 0.5 Pounds per Acre, 30 days after treatment

O=P(O)(O)CCCl [Ethephon, 2-chloroethylphosphonic acid, reference compound]
inhibition at 560.425 g/ha [1, 12]: 0% | inhibition at 1120.85 g/ha [1, 12]: 0% | inhibition at 2241.7 g/ha [1, 12]: 0% | Percent Stimulation [1, 13]: 16% | Percent Stimulation ([1]; regrowth relative to DEF standard (43 percent), Rate 1.0 Pounds per Acre, 30 days after treatment): 70% | Percent Stimulation ([1]; regrowth relative to DEF standard (43 percent), Rate 2.0 Pounds per Acre, 30 days after treatment): 62% | Percent Defoliation ([2]; Rate 0.25 Pounds per Acre): 0% | Percent Defoliation ([2]; Rate 0.50 Pounds per Acre): 0% | pest or weed control at 280.212 g/ha ([3]; foliar, 96 h): 0% | pest or weed control at 560.425 g/ha ([3]; foliar, 96 h): 21% | Percent Ripening (Chlorosis) [4]: 10% | Percent Defoliation [5]: 5% | Percent Boil Opening [6]: 64% | Percent Defoliation [6]: 5% | Percent Defoliation [7]: 0% | Percent Defoliation [8]: 12% | Percent Defoliation ([9]; Rate 0.25 Pounds per Acre): 3% | Percent Defoliation ([10]; Rate 0.125 Pounds per Acre): 0% | Percent Defoliation ([10]; Rate 0.25 Pounds per Acre): 0% | Percent Defoliation ([10]; Rate 0.50 Pounds per Acre): 0% | Percent Defoliation [11]: 13%

CCOC(=O)C1(C(=O)Nc2ccc(Br)cc2C)CC1 [Compound 96]
inhibition at 560.425 g/ha ([1]; Gossypium hirsutum, 720 h, regrowth relative to DEF standard (43 percent), Rate 0.5 Pounds per Acre, 30 days after treatment, read-out: Percent Inhibition): 0% | Percent Stimulation [1, 13]: 0% | Percent Defoliation ([2]; Rate 0.25 Pounds per Acre): 0% | Percent Defoliation ([2]; Rate 0.50 Pounds per Acre): 0% | pest or weed control at 280.212 g/ha ([3]; Rate 0.25 Pounds per Acre, foliar spray, 96 hours after treatment): 0% | pest or weed control at 560.425 g/ha ([3]; Rate 0.50 Pounds per Acre, foliar spray, 96 hours after treatment): 0% | Percent Ripening (Chlorosis) [4]: 10% | Percent Boil Opening ([6]; result given by footnote symbol): * | Percent Defoliation [6]: 0% | Percent Defoliation [7]: 0% | Percent Defoliation [8]: 0% | Percent Defoliation ([9]; Rate 0.5 Pounds per Acre): 0% | Percent Defoliation ([9]; Rate 1.0 Pounds per Acre): 0% | Percent Defoliation [11]: 0%
